Molecular target: T1, purified human HDAC6 (Homo sapiens, UniProt Q9UBN7)
T1 construct: purchased BPS Bioscience 5006
T1 sequence (Q9UBN7 1-1215): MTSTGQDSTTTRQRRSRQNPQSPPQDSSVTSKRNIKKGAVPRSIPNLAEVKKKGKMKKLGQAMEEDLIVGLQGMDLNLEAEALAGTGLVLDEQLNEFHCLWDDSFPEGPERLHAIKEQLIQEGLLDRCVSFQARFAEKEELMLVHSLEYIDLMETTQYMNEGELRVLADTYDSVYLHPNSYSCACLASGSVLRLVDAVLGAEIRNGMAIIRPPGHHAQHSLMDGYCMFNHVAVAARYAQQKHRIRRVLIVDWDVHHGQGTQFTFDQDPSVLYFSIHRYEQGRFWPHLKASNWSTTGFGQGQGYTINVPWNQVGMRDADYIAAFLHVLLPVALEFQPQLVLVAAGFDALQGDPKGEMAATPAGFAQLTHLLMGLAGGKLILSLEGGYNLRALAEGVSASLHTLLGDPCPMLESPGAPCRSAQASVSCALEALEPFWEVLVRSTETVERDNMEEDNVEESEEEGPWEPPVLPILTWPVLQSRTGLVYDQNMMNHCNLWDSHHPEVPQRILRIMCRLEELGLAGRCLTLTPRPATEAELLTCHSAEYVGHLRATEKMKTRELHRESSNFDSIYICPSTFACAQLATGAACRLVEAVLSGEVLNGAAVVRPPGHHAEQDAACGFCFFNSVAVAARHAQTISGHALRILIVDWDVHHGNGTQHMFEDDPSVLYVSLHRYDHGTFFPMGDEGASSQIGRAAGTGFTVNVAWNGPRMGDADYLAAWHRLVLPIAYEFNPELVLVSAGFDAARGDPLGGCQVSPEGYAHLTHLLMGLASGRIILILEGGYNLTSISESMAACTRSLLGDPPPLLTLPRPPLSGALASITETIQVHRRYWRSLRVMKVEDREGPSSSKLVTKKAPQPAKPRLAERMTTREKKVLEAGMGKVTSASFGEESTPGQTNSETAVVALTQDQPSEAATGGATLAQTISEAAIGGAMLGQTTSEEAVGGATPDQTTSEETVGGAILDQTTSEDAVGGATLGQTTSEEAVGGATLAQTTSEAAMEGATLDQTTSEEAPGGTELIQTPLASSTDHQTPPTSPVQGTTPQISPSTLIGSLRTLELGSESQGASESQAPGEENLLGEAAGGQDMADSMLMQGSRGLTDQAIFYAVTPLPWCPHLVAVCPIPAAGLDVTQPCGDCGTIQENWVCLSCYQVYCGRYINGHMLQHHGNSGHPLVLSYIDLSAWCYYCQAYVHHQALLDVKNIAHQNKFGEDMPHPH
Assay: HDAC6 Enzyme Assay
Format: biochemical
Procedure, shortened: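 Deacetylated product quantified after trypsin digestion as released AMC (340/460 nm), following a 1 h, 30 °C reaction of human HDAC6 with Ac-RGK(Ac)-AMC peptide, quenched by trichostatin A. IC50 derived from DMSO-normalized curves.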

[1] = purified human HDAC6, substrate Ac-Arg-Gly-Lys(Ac)-AMC, 1 hour at 30° C., reported as bins
[2] = bin: greater than 500 nM and less than 1 μM (lower bound in nM, upper bound in μM)

Row | IC50 [1] [nM] | SMILES | further results
1 | < 100 | COc1ccc(NC(=O)NC(C)c2ccc(C(=O)NO)cc2)c(OC)c1 (stereo not drawn) [Compound I-44, 4-[1-({[(2,4-dimethoxyphenyl)amino]carbonyl}amino)ethyl]-N-hydroxybenzamide] | –
2 | 100 to 500 | CC(NS(=O)(=O)c1ccc(-c2cnco2)cc1)c1ccc(C(=O)NO)cc1 (stereo not drawn) [Compound I-178, N-hydroxy-4-[1-({[4-(1,3-oxazol-5-yl)phenyl]sulfonyl}amino)ethyl]benzamide] | –
3 | 100 to 500 | CC(NS(=O)(=O)c1ccccc1)c1ccc(C(=O)NO)cc1 (stereo not drawn) [Compound I-315, N-hydroxy-4-{1-[(phenylsulfonyl)amino]ethyl}benzamide] | –
4 | 100 to 500 | C[C@@H](NC(=O)c1cc2ccccc2o1)c1cccc(C(=O)NO)c1 [Compound I-201, N-((1R)-1-{3-[(hydroxyamino)carbonyl]phenyl}ethyl)-1-benzofuran-2-carboxamide] | –
5 | 100 to 500 | Cc1c(C(=O)NC(c2ccc(C(=O)NO)cc2)C(C)(C)C)cnn1-c1ccccc1 (stereo not drawn) [Compound I-182, N-(1-{4-[(hydroxyamino)carbonyl]phenyl}-2,2-dimethylpropyl)-5-methyl-1-phenyl-1H-pyrazole-4-carboxamide] | –
6 | – | Cc1oc(-c2ccccc2)nc1CC(=O)NC(c1ccc(C(=O)NO)cc1)C(C)(C)C (stereo not drawn) [Compound I-80, 4-(2,2-dimethyl-1-{[(5-methyl-2-phenyl-1,3-oxazol-4-yl)acetyl]amino}propyl)-N-hydroxybenzamide] | IC50 (bin: greater than 1 μM): > 1000 nM
7 | < 100 | CCC[C@@H](NC(=O)NC12CC3CC(CC(C3)C1)C2)c1ccc(C(=O)NO)cc1 [Compound I-18, 4-[(1R)-1-({[1-adamantylamino]carbonyl}amino)butyl]-N-hydroxybenzamide] | –
8 | < 100 | CC(NC(=O)c1ccc2occc2c1)c1ccc(C(=O)NO)cc1 (stereo not drawn) [Compound I-349, N-(1-{4-[(hydroxyamino)carbonyl]phenyl}ethyl)-1-benzofuran-5-carboxamide] | –
9 | < 100 | CC(C)[C@@H](NC(=O)Nc1c(F)cccc1F)c1ccc(C(=O)NO)cc1 [Compound I-521, 4-[(1R)-1-({[(2,6-difluorophenyl)amino]carbonyl}amino)-2-methylpropyl]-N-hydroxybenzamide] | –
10 | < 100 | Cc1c(C(=O)N[C@@H](c2ccc(C(=O)NO)cc2)C(C)C)oc2ccccc12 [Compound I-187, N-((1R)-1-{4-[(hydroxyamino)carbonyl]phenyl}-2-methylpropyl)-3-methyl-1-benzofuran-2-carboxamide] | –
11 | < 100 | CC(C)[C@@H](NC(=O)NC12CC3CC(CC(C3)C1)C2)c1ccc(C(=O)NO)cc1 [Compound I-354, 4-[(1R)-1-({[1-adamantylamino]carbonyl}amino)-2-methylpropyl]-N-hydroxybenzamide] | –
12 | 100 to 500 | CC(NC(=O)Nc1ccc(Oc2ccccc2)cc1)c1ccc(C(=O)NO)cc1 (stereo not drawn) [Compound I-20, N-hydroxy-4-[1-({[(4-phenoxyphenyl)amino]carbonyl}amino)ethyl]benzamide] | –
13 | < 100 | CC(C)C(NC(=O)c1cccn1C)c1ccc(C(=O)NO)cc1 (stereo not drawn) [Compound I-30, N-(1-{4-[(hydroxyamino)carbonyl]phenyl}-2-methylpropyl)-1-methyl-1H-pyrrole-2-carboxamide] | –
14 | < 100 | CC(NC(=O)c1cn2ccccc2n1)c1ccc(C(=O)NO)cc1 (stereo not drawn) [Compound I-125, N-(1-{4-[(hydroxyamino)carbonyl]phenyl}ethyl)imidazo[1,2-a]pyridine-2-carboxamide] | –
15 | < 100 | CC(NC(=O)c1ccc2nsnc2c1)c1ccc(C(=O)NO)cc1 (stereo not drawn) [Compound I-233, N-(1-{4-[(hydroxyamino)carbonyl]phenyl}ethyl)-2,1,3-benzothiadiazole-5-carboxamide] | –
16 | < 100 | CC(C)C(NC(=O)C12CC3CC(CC(C3)C1)C2)c1ccc(C(=O)NO)cc1 (stereo not drawn) [Compound I-58, N-(1-{4-[(hydroxyamino)carbonyl]phenyl}-2-methylpropyl)adamantane-1-carboxamide] | –
17 | – | CC(NC(=O)C1CCCC1)c1cccc(C(=O)NO)c1 (stereo not drawn) [Compound I-311, 3-{1-[(cyclopentylcarbonyl)amino]ethyl}-N-hydroxybenzamide] | IC50 (bin: greater than 1 μM): > 1000 nM

Row | IC50 [1] [nM] | SMILES | further results
18 | – | Cn1c(C(=O)N[C@@H](c2ccc(C(=O)NO)cc2)C(F)(F)F)cc(Cl)c1Cl [Compound I-108, 4,5-dichloro-1-methyl-N-((1S)-2,2,2-trifluoro-1-{4-[(hydroxyamino)carbonyl]phenyl}ethyl)-1H-pyrrole-2-carboxamide] | IC50 [2]: 500 to 1000 nM
19 | 100 to 500 | CC(C)[C@H](NC(=O)c1cc2ccccc2[nH]1)c1ccc(C(=O)NO)cc1 [Compound I-279, N-((1S)-1-{4-[(hydroxyamino)carbonyl]phenyl}-2-methylpropyl)-1H-indole-2-carboxamide] | –
20 | < 100 | CC(NC(=O)C1=Cc2ccccc2OC1)c1ccc(C(=O)NO)cc1 (stereo not drawn) [Compound I-224, N-(1-{4-[(hydroxyamino)carbonyl]phenyl}ethyl)-2H-chromene-3-carboxamide] | –
21 | < 100 | C[C@@H](NC(=O)NC12CC3CC(CC(C3)C1)C2)c1ccc(C(=O)NO)cc1 [Compound I-374, 4-[(1R)-1-({[1-adamantylamino]carbonyl}amino)ethyl]-N-hydroxybenzamide] | –
22 | – | Cc1c(C(=O)NC(C)c2cccc(C(=O)NO)c2)cnn1-c1ccccc1 (stereo not drawn) [Compound I-257, N-(1-{3-[(hydroxyamino)carbonyl]phenyl}ethyl)-5-methyl-1-phenyl-1H-pyrazole-4-carboxamide] | IC50 (bin: greater than 1 μM): > 1000 nM
23 | < 100 | CC(C)[C@@H](NC(=O)C12CC3CC(CC(O)(C3)C1)C2)c1ccc(C(=O)NO)cc1 [Compound I-223, 3-hydroxy-N-((1R)-1-{4-[(hydroxyamino)carbonyl]phenyl}-2-methylpropyl)adamantane-1-carboxamide] | –
24 | < 100 | CC(NC(=O)Nc1ccc(OC(F)F)cc1)c1ccc(C(=O)NO)cc1 (stereo not drawn) [Compound I-150, 4-{1-[({[4-(difluoromethoxy)phenyl]amino}carbonyl)amino]ethyl}-N-hydroxybenzamide] | –
25 | 100 to 500 | CC(C)C(NC(=O)Cc1csc2ccc(Cl)cc12)c1ccc(C(=O)NO)cc1 (stereo not drawn) [Compound I-206, 4-(1-{[(5-chloro-1-benzothien-3-yl)acetyl]amino}-2-methylpropyl)-N-hydroxybenzamide] | –
26 | < 100 | COc1cc(C(=O)NC(C)c2ccc(C(=O)NO)cc2)ccc1F (stereo not drawn) [Compound I-164, 4-fluoro-N-(1-{4-[(hydroxyamino)carbonyl]phenyl}ethyl)-3-methoxybenzamide] | –
27 | < 100 | Cn1ccc2cc(C(=O)NC(c3ccc(C(=O)NO)cc3)C(C)(C)C)ccc21 (stereo not drawn) [Compound I-145, N-(1-{4-[(hydroxyamino)carbonyl]phenyl}-2,2-dimethylpropyl)-1-methyl-1H-indole-5-carboxamide] | –
28 | – | C[C@@H](NC(=O)NC(C)(C)C)c1cccc(C(=O)NO)c1 [Compound I-320, 3-((1R)-1-{[(tert-butylamino)carbonyl]amino}ethyl)-N-hydroxybenzamide] | IC50 (bin: greater than 1 μM): > 1000 nM
29 | – | CC(NC(=O)C1(c2ccc(Cl)cc2)CC1)c1cccc(C(=O)NO)c1 (stereo not drawn) [Compound I-183, 3-[1-({[1-(4-chlorophenyl)cyclopropyl]carbonyl}amino)ethyl]-N-hydroxybenzamide] | IC50 [2]: 500 to 1000 nM
30 | – | CC(NC(=O)c1cccn1C)c1cccc(C(=O)NO)c1 (stereo not drawn) [Compound I-263, N-(1-{3-[(hydroxyamino)carbonyl]phenyl}ethyl)-1-methyl-1H-pyrrole-2-carboxamide] | IC50 (bin: greater than 1 μM): > 1000 nM
31 | 100 to 500 | CCC[C@@H](NC(=O)NC(C)(C)C)c1ccc(C(=O)NO)cc1 [Compound I-380, 4-((1R)-1-{[(tert-butylamino)carbonyl]amino}butyl)-N-hydroxybenzamide] | –
32 | < 100 | CC(C)[C@@H](NC(=O)c1cc2oc(-c3ccccc3)cc2n1C)c1ccc(C(=O)NO)cc1 [Compound I-332, N-((1R)-1-{4-[(hydroxyamino)carbonyl]phenyl}-2-methylpropyl)-4-methyl-2-phenyl-4H-furo[3,2-b]pyrrole-5-carboxamide] | –
33 | 100 to 500 | CC(NC(=O)C1(c2ccccc2)CCCC1)c1ccc(C(=O)NO)cc1 (stereo not drawn) [Compound I-298, N-hydroxy-4-(1-{[(1-phenylcyclopentyl)carbonyl]amino}ethyl)benzamide] | –
